Experimental findings from patent US9029553B2, “2-anilino nicotinyl linked 2-amino benzothiazole conjugates and process for the preparation thereof” (Council of Scientific & Industrial Research, priority 2011, dated 2015) are described below.

For one data set, the system named is topoisomerase II. The data set is described as follows: DNA topoisomerase-II inhibition assay. The format is biochemical. Particulars: 1 μM; etoposide 100 μM. An excerpt:
DNA topoisomerases are nuclear enzymes capable of resolving the topology of DNA to allow its replication. So, proper relaxing is very important for successful replication cycle and thus for the cell survival. However, topoisomerases also serve as targets in the anticancer chemotherapy in which cell death serves an important purpose. Moreover, the topoisomerase targeting drugs can either be classified either topo posions, which act by stabilizing enzyme DNA cleavable complexes leading to DNA break or topo catalytic inhibitors, which act by stabilizing enzyme where both DNA strands remain intact and no DNA breaks occur. Importantly, all the topoisomerase inhibitors finally induce apoptosis. In the present study, all the five compounds 4-8 were first subjected to topoisomerase II inhibition assay.

Data set [1] concerns MCF-7. The data set is described as follows: MTT inhibition of cell proliferation. The format is cell-based. The settings on record: Homo sapiens, MCF7, 48 h. The text has this: (§1) In order to determine the mode of action of cell death in cancer cells, first we explored the cytotoxic potential of different structural analogs of benzothiazoles on different human cancer cell lines. […] These compounds have limited or no cytotoxicity to cervical cancer SiHa, HeLa cells, breast cancer MCF-7 cells and colon cancer HCT-15 cells.

The subject of data set [2] is HCT-15. The data set is described as follows: MTT inhibition of cell proliferation. The format is cell-based. The settings on record: Homo sapiens, 48 h.
Excerpt: as §1

The test system of the next data set is HL-60. Put plainly: MTT inhibition of cell proliferation. The format is cell-based. The settings on record: Homo sapiens, 48 h.
Excerpt: as §1

Data set [3] relates to SiHa. The data set is described as follows: MTT inhibition of cell proliferation. The format is cell-based. The settings on record: Homo sapiens, 48 h.
Excerpt: as §1

For data set [4], the system named is Hela. Put plainly: MTT inhibition of cell proliferation. It counts as cell-based. Particulars: Homo sapiens, 48 h.
Excerpt: as §1

The subject of a further data set is HL-60 cells. Put plainly: Flow cytometric analysis of reactive oxygen species (DCFH-DA). It counts as cell-based, human. The settings on record: 1 μM, 24 h, HL-60, compared to control. The method, then: It was clear that these compounds were cytotoxic and induce apoptosis in HL-60 cells, now we have to found out the early events which were responsible for the induction of apoptosis like reactive oxygen species (ROS) or nitric oxide (NO) generation. Intracellular peroxide (ROS) in the cells was measured by DCFH-DA by using flow cytometry. Cells were incubated with tested compounds at 1 μM for 24 h in HL-60 cells and analyzed by flow cytometry after double staining with DCFH-DA (FIG. 7). Cells were analyzed for fluorescence intensity in FL1 vs. cell count. There was hardly any DCF fluorescence (ROS positive cells) in the untreated HL-60 cells, and this status remained unchanged when cells were incubated for 24 hr with compounds 7 and 8. […] Compounds 4 and 6 also induce the generation of peroxide in HL-60 cells (31 and 16% increase, respectively).

Another data set has as its system PC-3. Put plainly: SRB percentage growth inhibition (NCI protocol). Particulars: Homo sapiens, 48 hrs exposure. It counts as cell-based. The method, then:
(§2) 2-Anilino nicotinyl linked 2-amino benzothiazoles conjugates of formula 4-8 have been tested against ten and eleven human cancer cell lines for 10 and 1 μM respectively derived from nine cancer types (leukemia, non-small cell lung cancer, colon cancer, CNS cancer, melanoma, ovarian cancer, renal cancer, prostate cancer and breast cancer) as per NCI protocol. For each compound, percentage of growth inhibition was calculated for individual cell lines at a minimum of two concentrations (1 and 10 μM). A protocol of 48 hrs continuous drug exposure was used, and a sulforhodamine B (SRB) protein assay was used to estimate cell viability or growth. The percentage of growth inhibition compared with the control was calculated in table 1 and table 2.

The test system of another data set is SK-NS-H. Put plainly: SRB percentage growth inhibition (NCI protocol). It counts as cell-based. Particulars: Homo sapiens, SK-N-SH, 48 hrs exposure. How it is done: as §2
Data set [5] concerns MCF-7. Put plainly: SRB percentage growth inhibition (NCI protocol). It counts as cell-based. The settings on record: Homo sapiens, MCF7, 48 hrs exposure. The method, then:
as §2

The next data set relates to DU145. Put plainly: SRB percentage growth inhibition (NCI protocol). It counts as cell-based. Particulars: Homo sapiens, DU-145, 48 hrs exposure. The method, then:
as §2

For the next data set, the system named is 502713. The data set is described as follows: SRB percentage growth inhibition (NCI protocol). The settings on record: Homo sapiens, 48 hrs exposure. It counts as cell-based. The method, then:
as §2

The subject of a further data set is A549. Put plainly: SRB percentage growth inhibition (NCI protocol). The format is cell-based. Particulars: Homo sapiens, 48 hrs exposure. The method, then: as §2
In the next data set the test system is Sw-620. Put plainly: SRB percentage growth inhibition (NCI protocol). It counts as cell-based. Particulars: Homo sapiens, 48 hrs exposure. How it is done: as §2
For the next data set, the system named is OVCAR-5. Put plainly: SRB percentage growth inhibition (NCI protocol). The format is cell-based. Particulars: Homo sapiens, 48 hrs exposure. The method, then:
as §2

The next data set has as its system IMR-32. Put plainly: SRB percentage growth inhibition (NCI protocol). It counts as cell-based. The settings on record: Homo sapiens, 48 hrs exposure. The method, then: as §2
For another data set, the system named is HEP-2. The data set is described as follows: SRB percentage growth inhibition (NCI protocol). Particulars: Homo sapiens, 48 hrs exposure. It counts as cell-based. The method, then:
as §2

Data set [6] concerns HCT-15. The data set is described as follows: SRB percentage growth inhibition (NCI protocol). It counts as cell-based. The settings on record: Homo sapiens, 48 hrs exposure. The method, then:
as §2

The next data set deals with IGR-OV-1. Put plainly: SRB percentage growth inhibition (NCI protocol). The settings on record: Homo sapiens, IGROV-1, 48 hrs exposure. The format is cell-based. The method, then:
as §2

The subject of data set [7] is SiHa. The data set is described as follows: SRB percentage growth inhibition (NCI protocol). The format is cell-based. The settings on record: Homo sapiens, 48 hrs exposure. The method, then:
as §2

For data set [8], the system named is Hela. The data set is described as follows: SRB percentage growth inhibition (NCI protocol). It counts as cell-based. The settings on record: Homo sapiens, 48 hrs exposure. How it is done:
as §2

Data set [9] deals with Ehrlich Ascites Carcinoma (EAC). Put plainly: In vivo anticancer activity, Ehrlich ascites carcinoma. Set-up: species or system Swiss mice. Particulars: for No. of deaths / toxicity to animals: EAC mice. How it is done: Model: Ehrlich Ascites Carcinoma (EAC)
Ehrlich ascites carcinoma (EAC) cells were collected from the peritoneal cavity of the swiss mice harbouring 8-10 days old ascitic tumor. 1×10^7 EAC cells were injected intraperitoneally in Swiss mice selected for the experiment on day 0. The next day, animals were randomized and divided into different groups. The treatment groups contained 7 animals each and control group contained 10 animals. Treatment groups were treated with different doses of test substances intraperitoneally from day 1-9. One of the treatment group received 5-fluorouracil (20 mg/kg, i.p) and it served as positive control. The tumor bearing control group was similarly administered normal saline (0.2 ml, i.p.). On day 12, animals were sacrificed and ascitic fluid was collected from peritoneal cavity of each mouse for the evaluation of tumor growth. Percent tumor growth inhibition was calculated based on the total number of tumor cells present in the peritoneal cavity as on day 12 of the experiment using the following formula.

Data set [10] has as its system normal monkey kidney CV-1 cells. The data set is described as follows: MTT cytotoxicity in normal cells. The format is cell-based. The settings on record: Primates. The method, then:
These compounds were also evaluated for their cytotoxic potential in normal cells and for these purpose their IC50 value were also determine in normal monkey kidney CV-1 cells by using MTT method. The ratios of normal to cancer cells IC50 value were ranges from 10-1000 times (Table 5).

Take `O=C(Nc1nc2ccc([N+](=O)[O-])cc2s1)c1cccnc1Nc1ccccc1` [Compound 4, N-3-(6-Nitro-1,3-benzothiazol-2-yl)-2-(phenylamino)-3-pyridinecarboxamide]: in the data set with topoisomerase II, the “topoisomerase-II inhibition (DNA relaxation)” value is recorded as “more potent effect relative to etoposide”. Further, the half-maximal inhibitory concentration (IC50) in the data set on MCF-7 [1] was > 100 µM; in the data set with HCT-15 [2], > 100 µM; with HL-60, 0.58 µM; in the data set on SiHa [3] it was 28 µM; in the data set on Hela [4], > 100 µM; in data set [10], 70 µM. The “increase in DCF positive cell population (ROS)” value with HL-60 cells was determined as 31%. Further, the inhibition at 1 µM came to 22% in the data set on PC-3; 44% with MCF-7 [5]; 35% in the data set with DU145; 23% in the data set with A549; 9% in the data set on Sw-620; 29% in the data set on OVCAR-5. Besides, the inhibition at 1 µM in the data set on IMR-32 was determined as 35%; in the data set on HEP-2, 50%; in the data set with HCT-15 [6], 6%; with IGR-OV-1, 29%; with Hela [8], 9%. Also, the inhibition at 10 µM in the data set on SK-NS-H stood at 48%; with DU145, 52%; in the data set on 502713 it was 63%; in the data set on A549, 31%; with Sw-620 it was 65%; in the data set with OVCAR-5, 50%. Moreover, the inhibition at 10 µM came to 45% with IMR-32, 26% in the data set on HEP-2, 66% with HCT-15 [6] and 53% in the data set with SiHa [7]. Moreover, the “Growth Inhibition (%)” value in data set [9] (10 mg/Kg i.p. day 1-9, read day 12) was 42.21%; in data set [9] (50 mg/Kg i.p. day 1-9, read day 12), “Intolerable”. The “No. of deaths / toxicity to animals” value was 2 in data set [9] (10 mg/Kg i.p.); 2/7 in data set [9] (10 mg/Kg i.p., listed as Comp 4); “toxic” in data set [9] (50 mg/Kg i.p.); 7/7 in data set [9] (50 mg/Kg i.p., listed as Comp 4).
Take `CC(=O)O[C@H]1C(=O)[C@@]2(C)[C@H]([C@H](OC(=O)c3ccccc3)[C@]3(O)C[C@H](OC(=O)[C@H](O)[C@@H](NC(=O)c4ccccc4)c4ccccc4)C(C)=C1C3(C)C)[C@]1(OC(C)=O)CO[C@@H]1C[C@@H]2O` [Pac, paclitaxel, reference compound]: the inhibition at 10 µM in the data set on SK-NS-H stood at 20%; with DU145, 42%; in the data set with 502713 it was 59%; in the data set on A549, 41%; in the data set with Sw-620, 73%; in the data set on OVCAR-5 it was 51%. For the same molecule, the figures for the inhibition at 10 µM in the data set with IMR-32, in the data set with HCT-15 [6] and with SiHa [7] were 46%, 37% and 49%, respectively. Besides, the inhibition at 1 µM with DU145 is 44%; in the data set with A549, 34%.
On to `COc1ccc(Nc2ncccc2C(=O)Nc2nc3ccc([N+](=O)[O-])cc3s2)cc1` [Compound 5, N3-(6-nitro-1,3-benzothiazol-2-yl)-2-(4-methoxyanilino)nicotinamide], for which the “topoisomerase-II inhibition (DNA relaxation)” value in the data set on topoisomerase II was “more potent effect relative to etoposide”. Moreover, the IC50 in the data set with MCF-7 [1] was > 100 µM; in the data set on HCT-15 [2], > 100 µM; with HL-60, 0.7 µM; in the data set with SiHa [3], 28 µM; in the data set with Hela [4], > 100 µM; in data set [10], 10 µM. The “increase in DCF positive cell population (ROS)” value in the data set with HL-60 cells is ~44%. The inhibition at 1 µM is 21% in the data set with PC-3; 25% in the data set on MCF-7 [5]; 53% in the data set on DU145; 27% in the data set on A549; 15% with Sw-620; 31% in the data set with OVCAR-5. In addition, the inhibition at 1 µM in the data set with IMR-32 was found to be 53%; with HEP-2, 38%; in the data set on HCT-15 [6] it was 9%; with IGR-OV-1, 27%; in the data set with Hela [8], 7%. Further, the inhibition at 10 µM in the data set with SK-NS-H stood at 64%; in the data set with DU145, 32%; in the data set with 502713, 59%; in the data set with A549 it was 3%; in the data set with Sw-620, 64%; in the data set on OVCAR-5 it was 52%. In addition, the inhibition at 10 µM in the data set with IMR-32 stood at 55%; with HEP-2, 5%; in the data set with HCT-15 [6] it was 47%; in the data set with SiHa [7], 66%. For the same molecule, the “Growth Inhibition (%)” value is 20.90% in data set [9] (5 mg/Kg i.p. day 1-9, read day 12) and “Intolerable” in [9] (30 mg/Kg i.p. day 1-9, read day 12). Further, the “No. of deaths / toxicity to animals” value is given as 0/7 in data set [9] (5 mg/Kg i.p.); “toxic” in data set [9] (30 mg/Kg i.p.); 7/7 in [9] (30 mg/Kg i.p., listed as Comp 5).
Regarding `O=c1[nH]cc(F)c(=O)[nH]1` [Compound 5-FU, 5-fluorouracil, reference compound], the inhibition at 10 µM in the data set with SK-NS-H was found to be 7%; in the data set on 502713, 21%; in the data set with Sw-620 it was 76%; in the data set with OVCAR-5, 22%; in the data set on IMR-32, 71%; with HCT-15 [6], 44%. Also, the inhibition at 10 µM in the data set with SiHa [7] amounted to 44%. Moreover, the inhibition at 1 µM came out at 44% in the data set with Sw-620 and 46% with HCT-15 [6].
